One test deals with Plasmodium falciparum. Put plainly: Antiplasmodial activity against chloroquine-resistant Plasmodium falciparum W2. In kind it is functional, organism-based.
Test [1] has as its system Plasmodium berghei. Put plainly: (§1) Antimalarial activity after 10 days against Plasmodium berghei ANKA infected Anopheles stephensi at 50 uM/kg. The class given is functional.
The subject of test [2] is Plasmodium berghei. Description: (§2) Antimalarial activity after 10 days against Plasmodium berghei ANKA infected Anopheles stephensi at 10 uM/kg. In kind it is functional.
Test [3] has as its system Plasmodium berghei. Described as §2. The class given is functional. This is another data set of the same source.
In test [4] the test system is Plasmodium berghei. Described as §1. The class given is functional. The source holds these as a separate data set.

In turn, `COc1cc(NC(C)CCCN2C(=O)[C@H](C)NC2(C)C)c2ncccc2c1` (stereo partly drawn) registered an IC50 in the test on Plasmodium falciparum above 50 µM.

For the compound `COc1cc(NC(C)CCCN2C(=O)CN(C(=O)CN)C2(C)C)c2ncccc2c1` (stereo not drawn), the Activity with Plasmodium berghei [1] came out at 0.79; in the test with Plasmodium berghei [2] it was 1.08; with Plasmodium berghei [3], 42%.

For `COc1cc(NC(C)CCCN2C(=O)CN(C(=O)[C@@H](N)C(C)C)C2(C)C)c2ncccc2c1` (stereo partly drawn), the midpoint of inhibition in the test on Plasmodium falciparum, the IC50, lay at 7.9 µM.

In turn, `COc1cc(NC(C)CCCN2C(=O)[C@H](C)N(C(=O)CN)C2(C)C)c2ncccc2c1` (stereo partly drawn) came in with an IC50 in the test with Plasmodium falciparum of 5.5 µM.

`COc1cc(NC(C)CCCN2C(=O)CN(C(=O)[C@@H](N)CCSC)C2(C)C)c2ncccc2c1` (stereo partly drawn): in the test on Plasmodium falciparum, inhibition was half-maximal at 12 µM (IC50).

In the test on Plasmodium falciparum, `COc1cc(NC(C)CCCN2C(=O)CN(C(=O)[C@@H](N)CC(C)C)C2(C)C)c2ncccc2c1` (stereo partly drawn) came in with an IC50 of 6.3 µM.

Turning to `COc1cc(NC(C)CCCN2C(=O)CN(C(=O)[C@H](C)N)C2(C)C)c2ncccc2c1` (stereo partly drawn), the Activity was 40.1% with Plasmodium berghei [4], 1.34 in the test on Plasmodium berghei [1], 9.71 with Plasmodium berghei [2] and 67.9% in the test with Plasmodium berghei [3]. In the test with Plasmodium falciparum, the IC50 amounted to 8 µM.

`COc1cc(NC(C)CCCN2C(=O)[C@H](CCSC)N(C(=O)CN)C2(C)C)c2ncccc2c1` (stereo partly drawn) came in with an IC50 in the test on Plasmodium falciparum of 3.3 µM.

Regarding `COc1cc(NC(C)CCCN)c2ncccc2c1` (stereo not drawn) [PRIMAQUINE], the Activity with Plasmodium berghei [4] was determined as 42.9%; in the test with Plasmodium berghei [1] it was 0.95; in the test on Plasmodium berghei [2], 2; with Plasmodium berghei [3], 41.7%.

The IC50 is the concentration that gives 50% inhibition. The low end stands for greater potency, the high end for weaker potency.

The values are drawn from ChEMBL document CHEMBL1157495 (Bioorg Med Chem Lett, 2008).
